Measurements: patent US10799501B2, “Combination of an inhibitor of PARP with an inhibitor of GSK-3 or DOT1L” (King's College London, priority 2015, dated 2020)

Tests used:
NB4-LR2 (PML-RARα) = test: Humanized xenograft: NSG mice transplanted with NB4-LR2 cells, Olaparib treatment; type: in vivo, mouse
Protocol: We established humanized models of AML1-ETO and PML-RARα leukemia in sub-lethally irradiated NOD/SCID/IL2Rg−/−(NSG, 1 dose 200 RADs) by transplanting 2×10^6 Kasumi (intra-femoral, IF) and 1×10^5 NB4-LR2 or 1×10^5 THP1 (intravenous, IV) cells. The day after the transplantation, mice were split into two groups and given intra-peritoneal injections of vehicle (10% HBC) or Olaparib (25 mg/kg in 10% HBC) daily for 2-4 weeks. The maximum tolerable dose was calculated by in vivo dose-response experiments. Mice were monitored daily until they developed symptoms of leukemia, when they were culled and bone marrow, spleen and liver harvested and analyzed by FACS. The engraftment of human donor cells was defined as human CD45/CD33 double positive by FACS.

[1] = system: MLL-AF9 leukemic cells (Hoxa9−/− background); test: C57Bl/6 mice transplanted with Hoxa9−/− MLL-AF9 leukemic cells, Olaparib treatment; type: in vivo, mouse; details: Olaparib 50 mg/kg daily
Protocol: For Hoxa9 KO studies, we intravenously injected […] MLL-AF9 leukemic cells (wild type or Hoxa9−/− background) together with 2×10^5 bone marrow rescue cells into lethally irradiated C57Bl/6 mice (2 doses of irradiation 550 RADS each) for disease development. For drug studies, the control cohort received vehicle (10% 2-Hydroxpropyl-beta-cyclodextrin, HBC, Sigma-Aldrich) and the PARPi treatment group received daily Olaparib 50 mg/kg in 10% HBC for two-four weeks.

THP1 (MLL-AF9) = test: In vitro drug treatment of human leukemic cell line THP1; type: cell-based
Protocol: NB4-LR2 and THP1 cell lines (kindly provided by Dr Arthur Zelent and Professor Mel Greaves respectively) were cultured in RPMI (Invitrogen) supplemented with 10% selected FBS (R10), 2 mM L-Glutamine. Kasumi cell line (kindly provided by Dr Olaf Heidenreich) was cultured in RPMI-Hepes modified (Sigma) supplemented with 20% selected FBS and 2 mM L-[…]). Cell lines were validated by qPCR for their respective oncogenes. NIH3T3 and GP2 cell line was cultured in DMEM (Invitrogen) supplemented with 10% selected FBS and 2 mM L-Glutamine. Human primary AML cells were cultured in IMEM (Invitrogen) supplemented with […], 2 mM L-Glutamine, 10 ng/mL each of human cytokines, IL3, IL6, SCF, FLT3 ligand, and TPO. Cells were kept at 37° C. and 5% CO2. Use of human primary cells was approved by King's College London committee and consents of the patients were obtained. […] Colonies were scored 6-7 days after plating. For other in vitro studies, mouse leukemic cells and primary AML cell lines were subjected to continuously Olaparib (1 μM) or LiCl (8 mM) treatment in liquid culture for whole duration as indicated in the figures or figure legends. For human leukemic cell lines, experiments were performed as described above with 5 μM Olaparib. For each assay 1×10^5 cells were collected, washed in PBS and re-suspended in Annexin V binding solution (25 mM Hepes, 140 mM KCl, 2.5 mM CaCl2 pH 7.2). After centrifugation at 500 g for five minutes the cells were incubated with the Annexin V Binding solution containing 0.25 ug/ml mouse anti Annexin V-FITC antibody (Biolegend 640906) and 1 ug/ml propidium iodide in the dark for 30 minutes at 4° C. Samples were then washed in PBS analysed at the FACS LSRII (BD Biosciences Pharmingen) with FACS Diva. Cells were cytospun onto a glass slide at 400 g for 5 minutes and then fixed for 10 minutes with 2% formaldehyde/0.2% glutaraldehyde (Sigma Aldrich). […] Cells were counted in at least 5 fields for each slide, for a total of over 100 cells. The percentage of senescent cells was calculated by the percentage of the number of blue cell in the field.

[2] = system: PML-RARα primary human leukemia cells; test: In vitro treatment of primary AML patient cells carrying PML-RARα (APL); type: cell-based
Protocol: NB4-LR2 and THP1 cell lines (kindly provided by Dr Arthur Zelent and Professor Mel Greaves respectively) were cultured in RPMI (Invitrogen) supplemented with 10% selected FBS (R10), 2 mM L-Glutamine. Kasumi cell line (kindly provided by Dr Olaf Heidenreich) was cultured in RPMI-Hepes modified (Sigma) supplemented with 20% selected FBS and 2 mM L-[…]). Cell lines were validated by qPCR for their respective oncogenes. NIH3T3 and GP2 cell line was cultured in DMEM (Invitrogen) supplemented with 10% selected FBS and 2 mM L-Glutamine. Human primary AML cells were cultured in IMEM (Invitrogen) supplemented with […], 2 mM L-Glutamine, 10 ng/mL each of human cytokines, IL3, IL6, SCF, FLT3 ligand, and TPO. Cells were kept at 37° C. and 5% CO2. Use of human primary cells was approved by King's College London committee and consents of the patients were obtained. […] Colonies were scored 6-7 days after plating. […] Cells were counted in at least 5 fields for each slide, for a total of over 100 cells per condition. […] Cells were then washed in PBS and the differentiated cells were indicated by the deposition of dark blue insoluble formazan (NBT positive cells) and the percentage of differentiated cells were counted under microscopy. At least 200 cells were counted in most of the cases.

[3] = NSG mice succumbed with NB4-LR2 driven disease, Olaparib 25 mg/kg i.p. daily
[4] = C57Bl6 mice succumbed with MLL-AF9-Hoxa9 KO driven leukemia

## O=C(c1cc(Cc2n[nH]c(=O)c3ccccc23)ccc1F)N1CCN(C(=O)C2CC2)CC1 [Olaparib, 4-[(3-[(4-cyclopropylcarbonyl)piperazin-4-yl]carbonyl)-4-fluorophenyl]methyl(2H)-phthalazin-1-one]
NB4-LR2 (PML-RARα); [3]
  BM Engraftment (%): 40.27 ± 23.73%
  Disease Latency (days; median): 51 days
  Hematopoietic Liver Engraftment (%): 58.99 ± 27.07%
  Hematopoietic Spleen Engraftment (%): 33.39 ± 25.3%
  Liver: 2.415 ± 1.844 g
  Spleen: 0.5226 ± 0.5279 g
NB4-LR2 (PML-RARα); single agent, NB4-LR2 xenograft
  disease onset induced by ATRA-resistant APL cells: effectively suppress disease onset
[1]; [4]
  BM Engraftment (%): 82.06 ± 18.95%
  Disease Latency (days; median): 67 days
  Hematopoietic Liver Engraftment (%): 62.18 ± 38.26%
  Hematopoietic Spleen Engraftment (%): 65.4 ± 33.45%
  Liver: 1.696 ± 0.1262 g
  Spleen: 0.4337 ± 0.1559 g
[1]; Hoxa9 deficient MLL-AF9 leukemic cells
  disease latency: significantly delayed the disease latency
THP1 (MLL-AF9); counted on day 5 by trypan blue exclusion
  growth (relative proliferation) and differentiation: ineffective
THP1 (MLL-AF9); methylcellulose 7 days, 5 μM Olaparib
  colony forming ability: did not affect
[2]; 1 μM Olaparib for 5 days
  differentiation of primary AML cells: increased differentiation
[2]; primary patient cells treated 5 days
  in vitro PARPi response (sensitivity): highly sensitive
